Test results as given in patent publication US10301280B2 (Plexxikon Inc., priority 2012, dated 2019).
pIC50: −log10 of the molar value.

Legend:
c-kit mutant D816V = c-kit mutant D816V (Homo sapiens (Human), UniProt P10721, D816V/DEL694-753); assay: c-Kit mutant D816V biochemical assay (AlphaScreen); details: c-kit D816V biochemical inhibitory activity
Summary of the method: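 His-tagged c-Kit D816V kinase domain (551-934, Δ694-753, E. coli) phosphorylating 30 nM biotin-(E4Y)10 at 10 μM ATP in HEPES pH 7.2 with Mg/Mn, 5% DMSO, 30 min at room temperature. PY20-acceptor/streptavidin-donor AlphaScreen detection after EDTA stop. IC50 from 8-point 1:3 titration.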

c-kit kinase = c-kit kinase (Homo sapiens (Human), UniProt P10721); assay: c-Kit biochemical assay (AlphaScreen); details: c-kit biochemical inhibitory activity
Chain of c-kit kinase (P10721 26-976): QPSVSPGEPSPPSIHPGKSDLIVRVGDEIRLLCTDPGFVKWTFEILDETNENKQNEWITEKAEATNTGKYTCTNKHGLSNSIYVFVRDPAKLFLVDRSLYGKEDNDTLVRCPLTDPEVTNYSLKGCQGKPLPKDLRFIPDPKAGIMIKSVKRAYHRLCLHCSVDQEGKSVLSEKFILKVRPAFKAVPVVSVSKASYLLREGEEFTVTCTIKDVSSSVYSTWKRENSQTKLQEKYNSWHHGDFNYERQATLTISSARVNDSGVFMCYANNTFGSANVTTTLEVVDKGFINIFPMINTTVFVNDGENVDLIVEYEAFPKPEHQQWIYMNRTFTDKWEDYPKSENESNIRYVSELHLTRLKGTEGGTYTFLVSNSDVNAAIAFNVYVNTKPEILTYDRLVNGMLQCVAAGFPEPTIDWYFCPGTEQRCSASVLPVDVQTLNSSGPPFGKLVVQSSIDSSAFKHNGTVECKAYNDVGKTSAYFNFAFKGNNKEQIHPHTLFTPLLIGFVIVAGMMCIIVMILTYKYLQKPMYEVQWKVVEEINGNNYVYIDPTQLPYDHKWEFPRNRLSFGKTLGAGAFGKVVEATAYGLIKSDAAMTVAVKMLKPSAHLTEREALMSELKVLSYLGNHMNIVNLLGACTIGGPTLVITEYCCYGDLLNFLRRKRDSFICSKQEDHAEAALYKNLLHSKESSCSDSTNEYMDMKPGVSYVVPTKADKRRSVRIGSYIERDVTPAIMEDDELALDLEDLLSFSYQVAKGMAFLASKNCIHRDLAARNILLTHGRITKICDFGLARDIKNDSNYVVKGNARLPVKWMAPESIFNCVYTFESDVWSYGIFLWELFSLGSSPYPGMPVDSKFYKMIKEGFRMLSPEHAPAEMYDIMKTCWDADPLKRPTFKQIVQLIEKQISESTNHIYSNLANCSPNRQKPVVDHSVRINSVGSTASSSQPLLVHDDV
Procedure: Assays for biochemical cell-based activity of c-kit kinase are known in the art, for example, as described in U.S. Pat. Nos. 7,498,342 and 7,846,941, the disclosures of which are hereby incorporated by reference as it relates to such assays. The c-kit (or kinase domain thereof) is an active kinase in AlphaScreen. IC50 values are determined with respect to inhibition of c-Kit kinase activity, where inhibition of phosphorylation of a peptide substrate is measured as a function of compound concentration. Compounds to be tested were dissolved in DMSO to a concentration of 20 mM. These were diluted 30 μl into 120 μl of DMSO (4 mM) and 1 μl was added to an assay plate. These were then serially diluted 1:3 (50 μl to 100 μl DMSO) for a total of 8 points. Plates were prepared such that each kinase reaction is 20 μl in 1× kinase buffer (50 mM HEPES, pH 7.2, 5 mM MgCl2, 5 mM MnCl2, 0.01% NP-40, 0.2% BSA), 5% DMSO and 10 µM ATP. Substrate was 100 nM biotin-(E4Y)3 (Open Source Biotech, Inc.). C-kit kinase was at 0.1 ng per sample. After incubation of the kinase reaction for 1 hour at room temperature, 5 μl of donor beads (Streptavidin coated beads (Perkin Elmer Life Science) final concentration 1 μg/ml) in stop buffer (50 mM EDTA in 1× kinase buffer) was added, the sample was mixed and incubated for 20 minutes at room temperature before adding 5 μl of acceptor beads (PY20 coated beads (Perkin Elmer Life Science) final concentration 1 μg/ml) in stop buffer. The samples were incubated for 60 minutes at room temperature and the signal per well was read on AlphaQuest reader. Phosphorylated substrate results in binding of the PY20 antibody and association of the donor and acceptor beads such that signal correlates with kinase activity. The signal vs. compound concentration was used to determine the IC50.
Compounds were also tested using a similar assay with a 10-fold higher ATP concentration. For these samples, compounds to be tested were dissolved in DMSO to a concentration of 20 mM. These were diluted 30 μl into 120 μl of DMSO (4 mM) and 1 μl was added to an assay plate. These were then serially diluted 1:3 (50 μl to 100 μl DMSO) for a total of 8 points. Plates were prepared such that each kinase reaction is 20 μl in 1× kinase buffer (25 mM HEPES, pH 7.5, 2 mM MgCl2, 2 mM MnCl2, 0.01% Tween-20, 1 mM DTT, and 0.001% BSA), 5% DMSO and 100 µM ATP. Substrate was 30 nM biotin-(E4Y)10 (Upstate Biotech, Cat#12-440). C-kit kinase was at 1 ng per sample. After incubation of the kinase reaction for 1 hour at room temperature, 5 μl of donor beads (Streptavidin coated beads (Perkin Elmer Life Science) final concentration 10 μg/ml) in stop buffer (25 mM HEPES pH 7.5, 100 mM EDTA, 0.3% BSA) was added, the sample was mixed and incubated for 20 minutes at room temperature before adding 5 μl of acceptor beads (PY20 coated beads (Perkin Elmer Life Science) final concentration 10 μg/ml) in stop buffer. The samples were incubated for 60 minutes at room temperature and the signal per well was read on AlphaQuest or Envision reader (Perkin Elmer Life Science). Phosphorylated substrate results in binding of the PY20 antibody and association of the donor and acceptor beads such that signal correlates with kinase activity. The signal vs. compound concentration was used to determine the IC50.
The c-kit enzyme used in the above assay was either obtained from Cell Signaling Technology (Cat. #7754) or was prepared as follows: A plasmid encoding kit (DNA and encoded protein sequences shown below) was engineered using common polymerase chain reaction (PCR) methods. Complementary DNA cloned from various human tissues were purchased from Invitrogen, and these were used as substrates in the PCR reactions. Specific custom synthetic oligonucleotide primers were designed to initiate the PCR product, and also to provide the appropriate restriction enzyme cleavage sites for ligation with the plasmids. […]

[1] = tested on: BaF3-FL KIT D816V or BaF3-FL KIT V560G/D816V cell line; assay: Cell-based assays of c-Kit mutant kinase activity (cell growth, ATPlite); details: at least one of the c-kit cell assays of Example 26
Summary of the method: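 BaF3 cells dependent on full-length human KIT (D816V or V560G/D816V) seeded at 1×10^4 cells/well in RPMI with 10% FBS. Eight-point 1:3 dilutions from 10 μM top final (0.2% DMSO), 3 days at 37° C., 5% CO2. ATPlite luminescence gave IC50.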

Chain of c-kit mutant D816V (P10721 other isoform, or with tags, fused parts or gaps D816V/del 694-753): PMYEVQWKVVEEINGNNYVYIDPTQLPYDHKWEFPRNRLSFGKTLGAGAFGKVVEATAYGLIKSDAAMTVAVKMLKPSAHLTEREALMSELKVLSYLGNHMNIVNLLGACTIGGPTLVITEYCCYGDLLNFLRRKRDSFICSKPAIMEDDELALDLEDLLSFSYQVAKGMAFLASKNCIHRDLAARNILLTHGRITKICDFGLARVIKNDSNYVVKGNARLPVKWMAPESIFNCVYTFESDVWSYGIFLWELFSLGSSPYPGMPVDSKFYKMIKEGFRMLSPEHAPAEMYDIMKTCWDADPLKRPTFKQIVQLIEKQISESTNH

`O=C(Nc1cnc2[nH]c(-c3ccccc3)cc2c1)c1n[nH]c2ccc(F)cc12` [P-2010, 5-fluoro-N-(2-phenyl-1H-pyrrolo[2,3-b]pyridin-5-yl)-1H-indazole-3-carboxamide] gave an IC50 (c-kit mutant D816V) of 10 to 200 µM and an IC50 (c-kit kinase) of 10 to 200 µM.
With `Cc1cc2cc(NC(=O)c3cccc4n[nH]cc34)cnc2[nH]1` [P-2301, N-(2-methyl-1H-pyrrolo[2,3-b]pyridin-5-yl)-2H-indazole-4-carboxamide] the pIC50 [1] was greater than 5.00 and the IC50 (c-kit kinase) was 10 to 200 µM.
`O=S(=O)(Nc1cnc2[nH]c(-c3ccccc3)cc2c1)c1cn[nH]c1` [P-2018] was tested, and the IC50 (c-kit mutant D816V) was 10 to 200 µM and the IC50 (c-kit kinase) was 10 to 200 µM.
